Non-standard residues stand in square brackets, D forms with d. Residues, ends and D or L forms follow the SMILES beside them. *: point of attachment. Sta = CC(C)C[C@H](N)[C@@H](O)CC(=O)O; Phenoxyacetyl = O=C(COc1ccccc1)*; Boc = CC(C)(C)OC(=O)*
What was measured:
hog kidney renin = hog kidney renin (Sus scrofa, UniProt A0A287APG1); assay: Hog renin inhibition; type: biochemical; settings: for IC50: pH 7.3, concentration producing 50% inhibition of renin activity, read-out: I50
Description: An assay was carried out in order to determine the inhibitory potency of the peptides of the present invention. The assay measured the inhibition of hog kidney renin, and was in accordance with the procedure described in Rich et al., J. Med. Chem. 23: 27, 1980, except that a pH of 7.3 was used. The results of the assay, illustrated in the table below, are expressed as I50 values, which refers to the concentration of peptide inhibitor necessary to produce 50% inhibition of renin activity. This I50 value is obtained typically by plotting data from four inhibitor concentrations.

human kidney renin = biological target: T1, human kidney renin (Homo sapiens, UniProt P00797); assay: Human renin inhibition; type: biochemical; settings: purified human kidney renin; dissociation constant of the inhibited enzyme-inhibitor complex
T1 construct: human kidney renin purified as described in Bangham; from tissue; host or cells: human kidney
T1 sequence (P00797 67-406): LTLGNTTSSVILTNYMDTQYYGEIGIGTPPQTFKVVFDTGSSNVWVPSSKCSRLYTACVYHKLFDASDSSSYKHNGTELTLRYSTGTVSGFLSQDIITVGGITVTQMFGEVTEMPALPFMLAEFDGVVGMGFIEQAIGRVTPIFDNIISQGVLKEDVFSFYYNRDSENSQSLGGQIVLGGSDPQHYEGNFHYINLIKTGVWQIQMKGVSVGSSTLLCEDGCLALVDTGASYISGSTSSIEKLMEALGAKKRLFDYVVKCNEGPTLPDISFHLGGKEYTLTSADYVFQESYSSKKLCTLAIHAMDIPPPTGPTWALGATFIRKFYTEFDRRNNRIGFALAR
Description: An assay was carried out in order to determine the inhibitory potency of the peptides of the present invention. The assay measured the inhibition of human kidney renin purified as described in Bangham, D. R., Robertson, I., Robinson, J. I. S., Robinson, C. J., and Tree, M., Clinical Science and Molecular Medicine, 48 (Supp. 2): 136s-159s (1975), and further purified by affinity chromatography on pepstatin-aminohexyl-Sepharase as described in Poe, M., Wu., J. K., Florance, J. R., Radkey, J. A., Bennett, C. D., and Hoagsteen, K., J. Biol. Chem. (1982, in press). The assay was also in accordance with Poe et al. cited above. Results are expressed as KI values, which refer to the dissociation constant of the inhibited enzyme--inhibitor complex. This KI value was obtained as described above. […]

hog kidney renin, sequence (A0A287APG1 67-407): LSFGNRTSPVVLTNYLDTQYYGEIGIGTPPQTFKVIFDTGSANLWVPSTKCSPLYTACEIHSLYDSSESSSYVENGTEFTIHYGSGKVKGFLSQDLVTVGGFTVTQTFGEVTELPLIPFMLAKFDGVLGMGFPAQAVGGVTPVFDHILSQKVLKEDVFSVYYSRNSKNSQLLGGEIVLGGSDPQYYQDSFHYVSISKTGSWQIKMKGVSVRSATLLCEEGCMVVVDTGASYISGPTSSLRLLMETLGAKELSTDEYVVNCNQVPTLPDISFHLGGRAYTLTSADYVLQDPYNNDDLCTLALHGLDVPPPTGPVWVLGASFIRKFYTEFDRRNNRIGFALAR

Row | Compound | IC50 (hog kidney renin) [nM] | Ki (human kidney renin) [nM] | further results
1 | CC(C)C[C@H](NC(=O)C[C@H](O)[C@H](CC(C)C)NC(=O)[C@H](Cc1c[nH]cn1)NC(=O)CCc1ccccc1)C(=O)NCc1ccccc1 [3-phenylpropionyl-His-Sta-Leu-benzylamide] | – | – | inhibition at 0.1 µM (hog kidney renin; pH 7.3, at 10^-7 M, read-out: inhibition of renin activity at 10^-7 (printed in the I50 column)): 2%
2 | CC(C)C[C@H](NC(=O)C[C@H](O)[C@H](CC(C)C)NC(=O)[C@H](Cc1c[nH]cn1)NC(=O)OC(C)(C)C)C(=O)N[C@@H](Cc1ccccc1)C(N)=O [BOC--His--Sta--Leu--Phe--amide, BOC^1 -His-Sta-Leu-Phe-amide] (Boc-H[Sta]LF-NH2) | 400000 | – | –
3 | CC(C)C[C@H](NC(=O)C[C@H](O)[C@H](CC(C)C)NC(=O)[C@H](Cc1c[nH]cn1)NC(=O)C(C)Cc1ccccc1)C(=O)NCc1ccccc1 (single isomer, unassigned) [2-methyl-3-phenylpropionyl-His--Sta--Leu--benzylamide ("B" Isomer), 2-methyl-3-phenylpropionyl-His-Sta-Leu-benzylamide] | 940 | – | –
4 | CC(C)C[C@H](NC(=O)C[C@H](O)[C@H](Cc1ccccc1)NC(=O)[C@H](Cc1c[nH]cn1)NC(=O)C(Cc1ccccc1)Cc1ccccc1)C(=O)NCc1ccccc1 [2-benzyl-3-phenylpropionyl-His-AHPPA-Leu-benzylamide] | 2.6 | 34 | –
5 | His-Sta-Ala-Phe-methyl ester [His--Sta--Ala--Phe--methyl ester] | – | – | inhibition of renin activity at 10^-4 (printed in the I50 column) (hog kidney renin; pH 7.3, at 10^-4 M): 5%
6 | CC(C)C[C@H](NC(=O)C[C@H](O)[C@H](CC(C)C)NC(=O)[C@H](Cc1c[nH]cn1)NC(=O)C(Cc1ccccc1)c1ccccc1)C(=O)NCc1ccccc1 (stereo partly drawn) [2,3-diphenylpropionyl-His-Sta-Leu-benzylamide] | 2200 | 900 | –
7 | CC(C)C[C@H](NC(=O)C[C@H](O)[C@H](CC(C)C)NC(=O)[C@H](Cc1c[nH]cn1)NC(=O)C(Cc1ccccc1)Cc1ccccc1)C(=O)NCc1ccccc1 [2-benzyl-3-phenylpropionyl-His-Sta-Leu-benzylamide] | 150 | 830 | –
8 | CC(C)C[C@H](NC(=O)C[C@H](O)[C@H](CC1CCCCC1)NC(=O)[C@H](Cc1c[nH]cn1)NC(=O)COc1ccccc1)C(=O)N[C@@H](Cc1ccccc1)C(N)=O [POA--His--ACHPA--Leu--Phe--amide, POA-His-ACHPA^4 -Leu-Phe-amide] | 510 | 1.1 | –
9 | COC(=O)[C@H](Cc1ccccc1)NC(=O)[C@H](CC(C)C)NC(=O)C[C@H](O)[C@H](CC(C)C)NC(=O)[C@@H](N)Cc1c[nH]cn1 [His--Sta--Leu--Phe--methyl ester, His-Sta-Leu-Phe-methyl ester] (H-H[Sta]LF-OMe) | 14000 | – | –
10 | CC[C@H](C)[C@H](NC(=O)C[C@H](O)[C@H](CC1CCCCC1)NC(=O)[C@H](Cc1c[nH]cn1)NC(=O)COc1ccccc1)C(=O)NCc1ccccc1 [POA--His--ACHPA--Ile--benzylamide, POA-His-ACHPA-Ile-benzylamide] | 290 | – | –
11 | CC(C)C[C@H](NC(=O)C[C@H](O)[C@H](Cc1ccccc1)NC(=O)[C@H](Cc1c[nH]cn1)NC(=O)C(CCCc1ccccc1)Cc1ccccc1)C(=O)NCc1ccccc1 (stereo partly drawn) [2-phenylpropyl-3-phenylpropionyl-His-AHPPA-Leu-benzylamide] | 8.1 | 23 | –
12 | CC(C)C[C@H](NC(=O)C[C@H](O)[C@H](Cc1ccccc1)NC(=O)[C@H](Cc1c[nH]cn1)NC(=O)COc1ccccc1)C(=O)NCc1ccccc1 [POA--His--AHPPA--Leu--benzylamide, Phenoxyacetyl-L-histidyl-(3S,4S)-AHPPA-L-leucyl-benzylamide] | 20 | 10 | –
13 | CC(C)C[C@H](NC(=O)[C@H](Cc1c[nH]cn1)NC(=O)COc1ccccc1)[C@@H](O)CC(=O)N[C@@H](Cc1ccccc1)C(=O)N[C@@H](Cc1ccccc1)C(N)=O [POA--His--Sta--Phe--Phe--amide, POA-His-Sta-Phe-Phe-amide] (Phenoxyacetyl-H[Sta]FF-NH2) | 40000 | – | –
14 | CC(C)C[C@H](NC(=O)C[C@H](O)[C@H](CC(C)C)NC(=O)[C@H](Cc1c[nH]cn1)NC(=O)C(C)Cc1ccccc1)C(=O)NCc1ccccc1 (single isomer, unassigned) [2-methyl-3-phenylpropionyl-His--Sta--Leu--benzylamide ("A" Isomer), 2-methyl-3-phenylpropionyl-His-Sta-Leu-benzylamide] | – | – | inhibition at 1.3 µM (hog kidney renin; pH 7.3, at 1.3 × 10^-6 M, read-out: inhibition of renin activity at 1.3 × 10^-6 (printed in the I50 column)): 15%
15 | COC(=O)[C@H](Cc1ccccc1)NC(=O)[C@H](CC(C)C)NC(=O)C[C@H](O)[C@H](CC(C)C)NC(=O)[C@H](Cc1c[nH]cn1)NC(=O)COc1ccccc1 [POA--His--Sta--Leu--Phe--methyl ester, POA^2 -His-Sta-Leu-Phe-methyl ester] (Phenoxyacetyl-H[Sta]LF-OMe) | 3300 | – | –
16 | CC[C@H](C)[C@H](NC(=O)C[C@H](O)[C@H](CC1CCCCC1)NC(=O)[C@H](Cc1c[nH]cn1)NC(=O)COc1ccccc1)C(=O)NCc1ccccn1 [POA-His-ACHPA-Ile-2-pyridylmethylamide] | 1400 | – | –
17 | CC(C)C[C@H](NC(=O)C[C@H](O)[C@H](CC(C)C)NC(=O)[C@H](Cc1c[nH]cn1)NC(=O)C(CCCCc1ccccc1)Cc1ccccc1)C(=O)NCc1ccccc1 (stereo partly drawn) [2-phenylbutyl-3-phenylpropionyl-His-Sta-Leu-benzylamide] | 520 | 17 | –
18 | CC(C)CC=CC(Cc1ccccc1)C(=O)N[C@@H](Cc1c[nH]cn1)C(=O)N[C@@H](CC(C)C)[C@@H](O)CC(=O)N[C@@H](CC(C)C)C(=O)NCc1ccccc1 (stereo partly drawn) [2-(4,4-dimethyl-1-butenyl)-3-phenylpropionyl-His-Sta-Leu-benzylamide] | 610 | – | –
19 | CC(C)C[C@H](NC(=O)C[C@H](O)[C@H](CC(C)C)NC(=O)[C@H](Cc1c[nH]cn1)NC(=O)COc1ccccc1)C(=O)N[C@@H](Cc1ccccc1)C(N)=O [POA--His--Sta--Leu--Phe--amide, POA-His-Sta-Leu-Phe-amide] (Phenoxyacetyl-H[Sta]LF-NH2) | 7600 | – | –
20 | CC(C)C[C@H](NC(=O)C[C@H](O)[C@H](CC(C)C)NC(=O)[C@H](Cc1c[nH]cn1)NC(=O)C(C=Cc1ccccc1)Cc1ccccc1)C(=O)NCc1ccccc1 (stereo partly drawn) [2-phenethenyl-3-phenylpropionyl-His-Sta-Leu-benzylamide] | 260 | – | –
21 | CC(C)C[C@H](NC(=O)C[C@H](O)[C@H](Cc1ccccc1)NC(=O)[C@H](Cc1c[nH]cn1)NC(=O)CCc1ccccc1)C(=O)NCc1ccccc1 [3-phenylpropionyl-His-AHPPA-Leu-benzylamide] | 35 | 71 | –
22 | CCC(Cc1ccccc1)C(=O)N[C@@H](Cc1c[nH]cn1)C(=O)N[C@@H](CC(C)C)[C@@H](O)CC(=O)N[C@@H](CC(C)C)C(=O)NCc1ccccc1 (stereo partly drawn) [2-ethyl-3-phenylpropionyl-His-Sta-Leu-benzylamide] | 1400 | – | –
23 | CC(C)C[C@H](NC(=O)C[C@H](O)[C@H](CC(C)C)NC(=O)[C@H](Cc1c[nH]cn1)NC(=O)C(CCc1ccccc1)Cc1ccccc1)C(=O)NCc1ccccc1 (stereo partly drawn) [2-phenethyl-3-phenylpropionyl-His-Sta-Leu-benzylamide] | 370 | – | –
24 | CC(C)C[C@H](NC(=O)C[C@H](O)[C@H](CC(C)C)NC(=O)[C@H](Cc1c[nH]cn1)NC(=O)C(CCCc1ccccc1)Cc1ccccc1)C(=O)NCc1ccccc1 (stereo partly drawn) [2-phenylpropyl-3-phenylpropionyl-His-Sta-Leu-benzylamide] | 31 | 97 | –
